Data published in ChEMBL document CHEMBL4196008, “Structure activity relationships, multidrug resistance reversal and selectivity of heteroarylphenyl ABCG2 inhibitors” (Eur J Med Chem, 2018).

Columns and labels:
ABCG2 [1] = target: T1, ABCG2 (Homo sapiens, UniProt Q9UNQ0); assay: Inhibition of C-terminal GFP-fused human ABCG2 expressed in MDCK2 cells up to 10 uM preincubated for 30 mins followed by Hoechst 33342 addition and measured every 60 secs for 120 mins by Hoechst 33342 accumulation assay relative to XR9577; assay type: cell-based; conditions: MDCK2 cells expressing C-terminal GFP-fused human ABCG2, probe Hoechst 33342, read-out: Imax
T1 sequence (Q9UNQ0 whole entry): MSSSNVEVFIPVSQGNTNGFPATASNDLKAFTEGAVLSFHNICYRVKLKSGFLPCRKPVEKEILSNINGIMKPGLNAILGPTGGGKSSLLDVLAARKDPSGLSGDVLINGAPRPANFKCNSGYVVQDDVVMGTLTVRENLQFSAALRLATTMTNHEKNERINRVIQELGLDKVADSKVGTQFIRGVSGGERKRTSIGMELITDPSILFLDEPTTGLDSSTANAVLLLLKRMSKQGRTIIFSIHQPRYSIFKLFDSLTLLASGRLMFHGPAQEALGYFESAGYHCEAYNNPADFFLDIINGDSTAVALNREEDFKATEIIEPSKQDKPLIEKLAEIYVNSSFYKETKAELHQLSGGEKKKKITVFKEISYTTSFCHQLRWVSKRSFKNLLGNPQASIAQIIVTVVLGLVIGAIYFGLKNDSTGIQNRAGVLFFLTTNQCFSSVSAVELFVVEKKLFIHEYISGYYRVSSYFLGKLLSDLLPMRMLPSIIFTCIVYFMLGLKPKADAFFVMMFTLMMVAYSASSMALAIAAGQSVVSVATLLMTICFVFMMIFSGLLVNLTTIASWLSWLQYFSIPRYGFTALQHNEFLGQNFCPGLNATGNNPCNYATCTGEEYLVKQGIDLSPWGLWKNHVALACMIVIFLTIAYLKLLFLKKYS

[2] = target: T2, Broad substrate specificity ATP-binding cassette transporter ABCG2 (Homo sapiens, UniProt Q9UNQ0)
T2 sequence (Q9UNQ0 whole entry): T1 sequence (Q9UNQ0 whole entry)
Description: Inhibition of C-terminal GFP-fused human ABCG2 expressed in MDCK2 cells preincubated for 30 mins followed by Hoechst 33342 addition and measured every 60 secs for 120 mins by Hoechst 33342 accumulation assay

[3] = Resistance factor, ratio of SN-38 GI50 for MDCK2 cells expressing C-terminal GFP-fused human ABCG2 in presence of 1 uM test compound to SN-38 GI50 for MDCK2 cells in absence of test compound; assay type: functional
[4] = Resistance factor, ratio of SN-38 GI50 for MDCK2 cells expressing C-terminal GFP-fused human ABCG2 in presence of 0.100 uM test compound to SN-38 GI50 for MDCK2 cells in absence of test compound; assay type: functional
[5] = Growth inhibition of MDCK2 cells after 72 hrs by MTT assay; assay type: cell-based, Canis lupus familiaris, MDCK-II; conditions: dog
ABCG2 [6] = assay: Therapeutic index, ratio of GI50 for MDCK2 cells expressing C-terminal GFP-fused human ABCG2 to IC50 for C-terminal GFP-fused human ABCG2 expressed in MDCK2 BCRP cells; assay type: toxicity, cell-based; conditions: dog, read-out: TI
[7] = Growth inhibition of MDCK2 cells expressing C-terminal GFP-fused human ABCG2 after 72 hrs by MTT assay; assay type: ADME, cell-based, Canis lupus familiaris, MDCK-II; conditions: dog
[8] = Resistance factor, ratio of SN-38 GI50 for MDCK2 cells expressing C-terminal GFP-fused human ABCG2 in presence of 0.316 uM test compound to SN-38 GI50 for MDCK2 cells in absence of test compound; assay type: functional
[9] = Resistance factor, ratio of SN-38 GI50 for MDCK2 cells expressing C-terminal GFP-fused human ABCG2 in presence of 0.0316 uM test compound to SN-38 GI50 for MDCK2 cells in absence of test compound; assay type: functional
[10] = target: ATP-dependent translocase ABCB1 (Homo sapiens, UniProt P08183); assay: Inhibition of ABCB1 in human A2780adr cells assessed as reduction in calcein AM levels preincubated for 30 mins followed by calcein AM addition measured immediately at 60 sec time interval for 60 mins by fluorescence assay; assay type: cell-based
[11] = Resistance factor, ratio of SN-38 GI50 for MDCK2 cells expressing C-terminal GFP-fused human ABCG2 in presence of 0.0100 uM test compound to SN-38 GI50 for MDCK2 cells in absence of test compound; assay type: functional
[12] = target: T2, Broad substrate specificity ATP-binding cassette transporter ABCG2; assay: Inhibition of C-terminal GFP-fused human ABCG2 expressed in MDCK2 cells up to 10 uM preincubated for 30 mins followed by Hoechst 33342 addition and measured every 60 secs for 120 mins by Hoechst 33342 accumulation assay; assay type: cell-based; conditions: 2 h
ABCB1 = ABCB1 (Homo sapiens, UniProt P08183); assay: Inhibition of ABCB1 in human A2780adr cells assessed as reduction in calcein AM levels at 10 uM preincubated for 30 mins followed by calcein AM addition measured immediately at 60 sec time interval for 60 mins by fluorescence assay relative to control; assay type: cell-based; conditions: probe calcein AM
ABCB1, sequence (P08183 whole entry): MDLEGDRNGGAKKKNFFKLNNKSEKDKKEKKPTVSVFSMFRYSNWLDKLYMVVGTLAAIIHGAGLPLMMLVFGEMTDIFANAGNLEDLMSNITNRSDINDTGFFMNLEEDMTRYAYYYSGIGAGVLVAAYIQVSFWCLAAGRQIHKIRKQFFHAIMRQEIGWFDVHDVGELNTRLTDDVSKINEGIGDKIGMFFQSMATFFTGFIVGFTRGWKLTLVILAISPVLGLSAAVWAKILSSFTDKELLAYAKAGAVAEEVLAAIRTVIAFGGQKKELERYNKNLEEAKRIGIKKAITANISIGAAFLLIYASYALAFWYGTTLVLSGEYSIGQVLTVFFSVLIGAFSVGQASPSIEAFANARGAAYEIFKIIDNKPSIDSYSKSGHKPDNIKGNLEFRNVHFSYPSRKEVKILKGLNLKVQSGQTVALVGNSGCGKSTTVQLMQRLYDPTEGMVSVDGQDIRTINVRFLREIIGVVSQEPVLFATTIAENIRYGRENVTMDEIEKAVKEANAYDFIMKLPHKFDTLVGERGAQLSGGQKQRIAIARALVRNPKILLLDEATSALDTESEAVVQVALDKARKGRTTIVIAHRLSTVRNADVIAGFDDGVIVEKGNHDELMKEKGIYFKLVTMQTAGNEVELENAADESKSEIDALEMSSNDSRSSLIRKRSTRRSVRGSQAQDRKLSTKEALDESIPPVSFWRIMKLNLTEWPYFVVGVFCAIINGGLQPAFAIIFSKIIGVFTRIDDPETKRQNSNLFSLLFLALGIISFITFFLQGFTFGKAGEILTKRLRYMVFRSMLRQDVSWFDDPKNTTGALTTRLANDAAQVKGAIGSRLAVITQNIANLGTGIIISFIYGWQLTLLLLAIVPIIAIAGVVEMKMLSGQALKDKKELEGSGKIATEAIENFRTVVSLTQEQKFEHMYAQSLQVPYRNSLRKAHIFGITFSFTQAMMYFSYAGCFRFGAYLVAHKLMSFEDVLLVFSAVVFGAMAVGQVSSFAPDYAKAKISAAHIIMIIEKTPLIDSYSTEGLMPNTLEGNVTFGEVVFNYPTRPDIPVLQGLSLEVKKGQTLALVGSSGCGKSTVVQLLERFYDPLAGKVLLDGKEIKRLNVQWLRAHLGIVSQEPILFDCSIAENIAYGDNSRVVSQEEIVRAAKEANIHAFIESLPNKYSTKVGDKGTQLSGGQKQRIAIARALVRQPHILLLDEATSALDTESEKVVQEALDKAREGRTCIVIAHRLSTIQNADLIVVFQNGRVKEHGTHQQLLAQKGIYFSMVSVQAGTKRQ

ATP-dependent translocase ABCB1, sequence (P08183 whole entry, the tested form may be a part): as the sequence (P08183 whole entry) above

Structure (SMILES) | Emax at 2 h (ABCG2 [1]) | IC50 [2] | further results
COc1ccc(-n2nnc(-c3cccc(NC(=O)c4ccc(C(F)(F)F)cc4)c3)n2)cc1 | 100% | 18500 nM | 
O=C(Nc1ccccc1-n1cc(-c2ccccc2)nn1)c1ccccc1 | 100% | 15300 nM | RatioGI50 [3]: 1.63; RatioGI50 [4]: 3.59; GI50 at 72 h [5]: 452000 nM; selectivity ratio (ABCG2 [6]): 33.1; GI50 at 72 h [7]: 506000 nM; RatioGI50 [8]: 2.38; RatioGI50 [9]: 5.37; IC50 [10]: 21200 nM
COc1ccc(C(=O)Nc2ccccc2-c2nnc(-c3ccc(OC)cc3)o2)cc1 | 124% | 438 nM | RatioGI50 [4]: 2.17; GI50 at 72 h [5]: 487000 nM; selectivity ratio (ABCG2 [6]): 836; GI50 at 72 h [7]: 404000 nM; RatioGI50 [11]: 6.61; RatioGI50 [8]: 1.29; RatioGI50 [9]: 5.07
O=C(Nc1ccccc1-c1nnn(-c2ccccc2)n1)c1cccnc1 | 81% | 445 nM | 
O=C(Nc1ccccc1-c1nnn(-c2ccccc2)n1)c1cccs1 | 106% | 270 nM | 
O=C(Nc1ccccc1-c1nnn(-c2ccccc2)n1)c1ccccn1 | 99% | 733 nM | IC50 [10]: 5910 nM
COc1ccc(C(=O)Nc2ccccc2-c2nnn(-c3ccc(OC)cc3)n2)cc1 |  |  | inhibition (INH) [12]: Not Active
O=C(Nc1ccccc1-c1nnc(-c2ccccc2)o1)c1ccccc1 | 101% | 112 nM | RatioGI50 [4]: 1.52; GI50 at 72 h [5]: 60800 nM; selectivity ratio (ABCG2 [6]): 658; GI50 at 72 h [7]: 73700 nM; RatioGI50 [11]: 5.51; RatioGI50 [8]: 1.49; RatioGI50 [9]: 2.61
COc1ccc(-n2nnc(-c3ccccc3NC(=O)c3ccccc3)n2)cn1 | 120% | 102 nM | 
COc1ccc(C(=O)Nc2ccccc2-c2nnn(-c3ccc(OC)nc3)n2)cc1 | 103% | 61.6 nM | RatioGI50 [4]: 1.1; GI50 at 72 h [5]: 80100 nM; selectivity ratio (ABCG2 [6]): 1270; GI50 at 72 h [7]: 78000 nM; RatioGI50 [11]: 4.49; RatioGI50 [8]: 1.04; RatioGI50 [9]: 2.64; IC50 [10]: 8550 nM
O=C(Nc1ccccc1-c1nnn(-c2ccccc2)n1)c1cnc2ccccc2c1 | 51% | 176 nM | 
O=C(Nc1ccccc1-c1nnn(-c2ccccc2)n1)c1ccncc1 | 97% | 287 nM | 
COc1ccc(-n2nnc(-c3ccccc3NC(=O)c3ccc(C(F)(F)F)cc3)n2)cc1 |  |  | inhibition (INH) [12]: Not Active
COc1ccc(-n2nnc(-c3ccccc3-n3nnc(-c4ccc(C(F)(F)F)cc4)n3)n2)cc1 | 100% | 15800 nM | 
COc1ccc(C(=O)Nc2ccccc2-c2nn[nH]n2)cc1 |  |  | inhibition (INH) [12]: Not Active
CC(=O)Nc1ccccc1-c1nnn(-c2ccccc2)n1 | 100% | 6910 nM | 
COc1ccc(-n2nnc(-c3ccccc3NC(=O)c3cccs3)n2)cc1 | 90% | 351 nM | 
COc1ccc(-n2nnc(-c3ccccc3NC(=O)c3ccc(C(F)(F)F)cc3)n2)cn1 | 95% | 130 nM | 

Structure (SMILES) | Emax at 2 h (ABCG2 [1]) | IC50 [2] | further results
O=C(Nc1ccccc1-c1nnn(-c2ccccc2)n1)c1ccc2c(c1)OCCO2 | 106% | 190 nM | 
COc1ccc(-n2nnc(-c3cc(OC)ccc3NC(=O)c3ccc([N+](=O)[O-])cc3)n2)cc1 | 50% | 129 nM | 
COc1ccc(-n2nnc(-c3ccccc3NC(=O)C3CCCCC3)n2)cc1 | 95% | 565 nM | 
COc1ccc(-n2nnc(-c3cc(OC)ccc3NC(=O)c3ccc(C(F)(F)F)cc3)n2)cc1 | 96% | 77.4 nM | 
COc1ccc(-n2nnc(-c3ccccc3NS(=O)(=O)c3ccc(OC)cc3)n2)cc1 | 100% | 7670 nM | 
O=C(Nc1ccccc1-c1nn[nH]n1)c1ccccc1 |  |  | inhibition (INH) [12]: Not Active
COc1ccc(-c2cn(-c3ccccc3NC(=O)c3ccc(C(F)(F)F)cc3)nn2)cc1 | 118% | 766 nM | 
O=C(Nc1ccccc1-c1nnn(-c2ccccc2)n1)C12CC3CC(CC(C3)C1)C2 | 99% | 1060 nM | IC50 [10]: 11000 nM; inhibition at 1 h, 10 µM (ABCB1): 51%
COc1ccc(-n2nnc(-c3ccccc3NC(=O)c3cccc4ccccc34)n2)cc1 | 78% | 267 nM | 
O=C(Nc1ccccc1-c1nnn(-c2ccccc2)n1)c1ccc2c(c1)OCO2 | 123% | 259 nM | 
c1ccc(-c2ccccc2-c2nnn(-c3ccccc3)n2)cc1 | 100% | 8340 nM | 
COc1ccc(C(=O)Nc2ccccc2-n2cc(-c3ccc(OC)cc3)nn2)cc1 | 100% | 2360 nM | 
COc1ccc(-n2nnc(-c3ccccc3NC(=O)c3cnc4ccccc4c3)n2)cc1 | 82% | 228 nM | 
COc1ccc(-c2nnc(-c3ccccc3NC(=O)c3ccc(C(F)(F)F)cc3)o2)cc1 | 47% | 90 nM | 
COc1ccc(-n2nnc(-c3ccccc3NC(C)=O)n2)cc1 | 100% | 3230 nM | 
O=C(Nc1ccccc1-c1nnn(-c2ccccc2)n1)C1CCCCC1 | 97% | 287 nM | 
COc1ccc(-n2nnc(-c3ccc(NC(=O)c4ccc(C(F)(F)F)cc4)cc3)n2)cc1 | 100% | 39800 nM | 
O=C(Nc1ccccc1-c1nnn(-c2ccccc2)n1)c1cccc2ccccc12 | 85% | 430 nM | 
